Reference: patent US10053455B2, “Diazaspiroalkaneone-substituted oxazole derivatives as spleen tyrosine kinase inhibitors” (AB SCIENCE, priority 2014, dated 2018)

What was measured:
[1] = system: Salmonella typhimurium strain TA98; assay: AMES mutagenic assay, TA98 strain; settings: TA98, presence of S-9, 1 μg per well (positive control)
Procedure: (§1) Mutagenic activity of test compounds and their metabolites (produced by rat liver S9 fraction) was evaluated in the Salmonella typhimurium strains TA100 and TA98 according to the Ames assay (Toxicology in vitro, (2001), 15: 105-114). […] The results are expressed as a mutagenicity ratio in comparison to solvent controls.
(§2) The results are expressed as a ratio of the number of colonies over the number of colonies in the negative control (DMSO).

[2] = system: Salmonella typhimurium strain TA100; settings: Salmonella typhimurium
Procedure: as §1, §2

SYK kinase = SYK kinase (Homo sapiens (Human), UniProt P43405); assay: In vitro SYK inhibition assay (HTRF kinase assay); type: biochemical; settings: read-out: Syk (IC50)
Procedure: SYK kinase was purified as a full length protein in a baculovirus system near homogeneity. All kinase assays were performed with the Kinase TK (tyrosine kinase) HTRF (Homogeneous Time Resolved Fluorescence) assay developed by Cisbio international. […] Reactions were initiated upon introduction of the enzyme and terminated with the addition of one reaction volume (25 μl) of HTRF detection buffer. Plates were incubated for one hour at room temperature and the time resolved Fluorescence resonance energy transfer signal was measured in a Pherastar FS microplate reader (BMG Labtech).
(§3) Most of the kinases tested in this study were cloned, expressed and purified in the facilities of the inventors. They were expressed either as N-terminus hexahistidine-, hexahistidine-asparagine- or GST-tagged enzymes in a baculovirus or in a Colibacille expression system. Remaining enzymes (JAKs) were purchased from Millipore or Proqinase. For each enzyme, steady state kinetic parameters were determined and validated with known inhibitors.
(§4) The analysis of the effect of compounds on kinase activity was assessed with the HTRF® KinEASE assay (Cisbio International), an immuno-assay based on the quantification of the level of phosphorylation of a biotinylated peptide substrate using anti-phospho-specific antibody labeled with Europium (Eu^3+) cryptate. This assay comprises two steps: —an enzymatic step, during which the peptide substrate, the kinase, ATP, Mg^2+ and/or Mn^2+ are incubated with varying concentration of drug (from 0 to 10 μM); —a detection step, at the end of the reaction (stopped by addition of EDTA which chelates Mg^2+), the antibody anti-phospho peptide-Eu^3+ (emission 620 nm) and streptavidin XL-665 (emission 665 nm) are added to the reaction mix. After incubation, the obtained signal is proportional to the concentration of phosphorylated peptide in the sample. All measurements were performed on a BMG Labtech Pherastar FS apparatus. Results are expressed in delta fluorescence (DF) unit defined as follow DF %=[(ratio−ratio blank)/(ratio blank)]*100, where ratio=(665 nm/620 nm)*10^4. Each experiment was performed in duplicate and repeated two or three times.

c-Ret mut = assay: HTRF kinase assay, c-Ret mut; type: biochemical; settings: enzymatic determination
Procedure: as §3
as §4, with “After incubation, the obtained signal is proportional to the concentration of phosphorylated peptide in the sample. All measurements were performed on a BMG Labtech Pherastar FS apparatus.” left out, “Each experiment was performed in duplicate and repeated two or three times.” left out

[3] = system: primary human adult cardiomyocytes; assay: WST-1 cell survival/proliferation assay on human cardiomyocytes; type: cell-based; settings: Human Cardiac Myocyte
Procedure: WST-1 cell survival/proliferation assay (Roche Diagnostic ref No 1644807) was performed on both primary human adult cardiomyocytes and rat neonatal cardiac myocytes.
Human cardiomyocytes were isolated from normal human ventricle tissue of the adult heart and were able to proliferate for a number of passage. Neonatal ventricular Clonetics® Rat Cardiac Myocytes (P1-3) retained their contractile property and were electrophysiologically active in culture. 1.10^4 primary rat cells or 2-2.5 10^4 adult human cells were plated per well of a 96 wells plates. The cells were allowed to adhere to the plates for 5 days before drug treatment. Treatment was initiated by addition of a 2× drug solution of ½ serial dilutions ranging from 0 to 10 μM. Cells were grown for 48 h at 37° C. and then incubated with 10 μl/well of WST-1 reagent for 4 h at 37° C. The amount of formazan dye formed was quantified by its absorbance at 450 nm using a scanning multiwell spectrophotometer (MultiSkan MS, Thermo-LabSystems, France). A blank well without cells was used as a background control for the spectrophotometer and all assays were performed in triplicate.

murine model of asthma = assay: Mouse model of asthma: eosinophils recruitment in bronchio-alveolar lavage; type: in vivo, Balb/c male mice
Procedure: Balb/c male mice, 8 weeks old, were purchased from Janvier (Le Genest-Saint-Isle; FRANCE) and bred in the animal facility for 4 weeks. Drugs were dissolved in drinking solvent (80% water; 10% Tween 80 and 10% isopropanediol). It was aliquoted and stored at −20° C. Each mouse received drugs twice a day. The weight of animals was calculated before and after treatment.
Mice, 9 weeks of age, were sensitized with 50 μg of ovalbumin (Sigma-Aldrich, Germany) adsorbed to 2 mg Al(OH)3 (Prolabo, France) and diluted in physiological saline (0.9% NaCl). Ovalbumin was injected intraperitoneally on days 1 and 7. Sensitization was followed by intranasal challenges with 10 μg of ovalbumin diluted in 0.9% NaCl, each day from day 18 to day 21. On days 17 to 21, animals treated with drugs received 100 μl of a solution at 15 mg/ml, at 7.5 mg/ml or at 3.75 mg/ml administered per os twice a day during 5 days. These treatments corresponded to concentration of 60 mg/mouse kg, 30 mg/mouse kg and 15 mg/mouse kg respectively.
Bronchio-alveolar lavage (BAL) was performed after the animals were disconnected from the FlexiVent®. The airways were lavaged with 5 ml (10 times 0.5 ml) ice cold 0.9% NaCl 2.6 mM EDTA. BAL samples were centrifuged at 1200 rpm for 5 minutes at 4° C. Pellet cells were collected and erythrocytes lysed by adding 1.5 ml deionized water for 30 seconds. After neutralization with 0.5 ml of 0.6M KCl, cells were centrifuged at 1200 rpm for 5 minutes at 4° C. BAL samples were used to count the total cell number and to perform cytospins (shandon, Pontoise). Cell types were identified by morphological criteria after Hemacolor (Merck) staining.
Mice were sensitized and challenged with ovalbumin as described in protocol assays above. The mice were distributed in groups of 5-6 animals that were treated twice daily with 7.5 to 60 mg/Kg of anti-SYK/KIT drugs (PO).

[4] = system: Murine bone marrow mast cells (BMMCs); assay: IgE-mediated mast cell degranulation assay (β-hexosaminidase release); type: cell-based, C57BL/6J mice
Procedure: In vitro mast cell degranulation assay monitored by released of β-hexosaminidase. Murine bone marrow mast cells (BMMCs) are obtained by flushing bone marrow cells from the femurs of C57BL/6J mice, then cultured for 3-4 weeks in RPMI containing mouse recombinant IL-3 (30 ng/ml). RBL-2H3 is a rat basophile cell line maintained in monolayer culture in EMEM supplemented with 20% FCS, 1 mM Glutamine and 1× antibiotics. Cells were sensitized overnight with 0.2 μg/ml anti-DNP-IgE (Sigma-Aldrich D8406). […] After incubation 90 min at 37° C., the reaction was quenched by addition of 100 μl of sodium carbonate buffer (0.1M Na2CO3/NaHCO3 pH 10.0). β-hexosaminidase activity was quantified by reading plate absorbance at 405 nm with reference at 620 nm using a PolarSTAR reader plate (BMG labech).
The activity of anti-SYK compounds was tested in an IgE-mediated mast cell degranulation assay. SYK has been identified to be critical for the initiation of mast cell mediator release following the aggregation of FcεRI.

[5] = system: murine model of arthritis; assay: K/BxN serum mouse model of rheumatoid arthritis: ankle thickening and arthritis score; type: in vivo, C57Bl/6 mice; settings: 50 mg/kg b.i.d.
Procedure: K/B×N serum pools were prepared from arthritic mice at 8 weeks of age. The mice were pre-treated with SYK inhibitors by two per os administration for two days before induction of arthritis. Arthritis was induced in the C57Bl/6 mice (8 weeks of age) by intraperitoneal injection (7.5 μl serum per g weight) at days 0 and 2.
The treatment with SYK inhibitors was continued for 13 days. The control mice were injected with solvent before the induction of arthritis and during the course of the disease. The compounds were dissolved in a solution containing 10% of Tween 80 and 10% 1-2 propandiol. It was prepared before administration.
Ankle thickening measure, being defined as the difference in ankle thickness from the day 0, was measured using a precision calliper. Arthritis/clinical score was defined by sum of scores of each lim (0 no disease; 1 mild swelling of paw or of just of few digits; 2 clear joint inflammation; 3 severe joint inflammation) maximum score=12.
K/B×N was a murine model of spontaneous rheumatoid arthritis that mimics many of the clinical and histological features of human disease with synovitis predominantly in the distal small joints. Arthritis was induced by intraperitoneal injection of arthritis serum of K/B×N mice at days 0 and 2 as described in protocol assays above. Compound 001 was tested at 15 and 50 mg/kg/day b.i.d. and compared with Masitinib at 50 mg/kg/day b.i.d., an AB Science drug candidate for treating rheumatoid arthritis (Arthritis Res Ther., (2009), 11(3):R95). Ankle thickening and arthritis score were used to monitor the in vivo activity of the compounds.

[6] = Experiment #1, 2 × 30 mg/kg/day PO

`Nc1ccc2cc3ccccc3cc2c1` [Compound 2-AM, 2-Anthramine, reference compound] showed a Ratio treated/solvent [1] of 138.1 and a Ratio treated/solvent [2] of 18.1.
`O=C1NCCN(c2ncc(-c3cccc(Nc4nccc(-c5cccs5)n4)c3)o2)C12CC2` [Compound 015, 4-{5-[3-(4-Thiophen-2-yl-pyrimidin-2-ylamino)-phenyl]-oxazol-2-yl}-4,7-diaza-spiro[2.5]octan-8-one] gave an IC50 (SYK kinase) of less than 500 nM.
For `O=C1NCCN(c2ncc(-c3cccc(Nc4nccc(C(F)(F)F)n4)c3)o2)C12CCC2` [Compound 016, 5-{5-[3-(4-Trifluoromethyl-pyrimidin-2-ylamino)-phenyl]-oxazol-2-yl}-5,8-diaza-spiro[3.5]nonan-9-one], the IC50 (SYK kinase) was less than 500 nM.
Work on `O=C1NCCN(c2ncc(-c3cc(Nc4nccc(C(F)(F)F)n4)ccc3OCCN3CCOCC3)o2)C12CC2` [Compound 017, 4-{5-[2-(2-Morpholin-4-yl-ethoxy)-5-(4-trifluoromethyl-pyrimidin-2-ylamino)-phenyl]-oxazol-2-yl}-4,7-diaza-spiro[2.5]octan-8-one] yielded an IC50 (SYK kinase) of less than 500 nM.
In the case of `Cc1ccnc(Nc2ccc(F)c(-c3cnc(N4CCNC(=O)C45CC5)o3)c2)n1` [Compound 018, 4-{5-[2-Fluoro-5-(4-methyl-pyrimidin-2-ylamino)-phenyl]-oxazol-2-yl}-4,7-diaza-spiro[2.5]octan-8-one], the IC50 (SYK kinase) is reported as less than 500 nM.
Compound `Cc1ccnc(Nc2cccc(-c3cnc(N4CCNC(=O)C45CC5)o3)c2C)n1` [Compound 020, 4-{5-[2-Methyl-3-(4-methyl-pyrimidin-2-ylamino)-pheny]-oxazol-2-yl}-4,7-diaza-spiro[2.5]octan-8-one] has an IC50 (SYK kinase) greater than 2000 nM.
Work on `Cc1ccnc(Nc2cccc(-c3cnc(N4CCNC(=O)C45CC5)o3)c2)c1` [Compound 021, 4-{5-[3-(4-Methyl-pyridin-2-ylamino)-phenyl]-oxazol-2-yl}-4,7-diaza-spiro[2.5]octan-8-one] yielded an IC50 (SYK kinase) of 500 to 2000 nM.
`O=C1NCCN(c2ncc(-c3cccc(Nc4nccs4)c3)o2)C12CC2` [Compound 022, 4-{5-[3-(Thiazol-2-ylamino)-phenyl]-oxazol-2-yl}-4,7-diaza-spiro[2.5]octan-8-one] was tested, and the IC50 (SYK kinase) was less than 500 nM.
With `COc1cc(Nc2ncc(F)c(Nc3ccc4c(n3)NC(=O)C(C)(C)O4)n2)cc(OC)c1OC` [Compound R406] the IC50 (c-Ret mut) was 500 nM, the “% cell viable at 1 μM, Hu-CM” value ([3]; 1 μM) was −18% and the IC50 ([3]; 48 h, read-out: Drug-induced cytotoxicity IC50, Hu-CM) was 2600 nM. The “Percentage of Eosinophils recruitment in Bronchio-alveolar lavage (BAL)” value (“Percentage of Eosinophils recruitment” below) (murine model of asthma; [6]) was −31%, the “β-hexosaminidase activity (% control untreated cells)” value ([4]; 0.01 μM) was 78 ± 11% and the “β-hexosaminidase activity (% control untreated cells)” value ([4]; 0.1 μM) was 16 ± 6%. The “β-hexosaminidase activity (% control untreated cells)” value ([4]; 1 μM) was 3 ± 3%.
In the case of `Cc1ccc(NC(=O)c2ccc(CN3CCN(C)CC3)cc2)cc1Nc1nc(-c2cccnc2)cs1` [Masitinib], the “Ankle Thickening Score” value [5] is reported as −27% P < 0.05, the “Arthritis Score” value [5] is reported as −15% and the “Percentage of Eosinophils recruitment” value (murine model of asthma; Experiment #1, 2 × 7.5 mg/kg/day PO) is reported as −15%. For the same compound, the “Percentage of Eosinophils recruitment” value (murine model of asthma; Experiment #1, 2 × 25 mg/kg/day PO) was −35%, the “Percentage of Eosinophils recruitment” value (murine model of asthma; [6]) was −56% and the “Percentage of Eosinophils recruitment” value (murine model of asthma; Experiment #2, 2 × 30 mg/kg/day PO) was −47%.
